# Results reported in patent publication US9468593B2, “Oral composition” (KABUSHIKI KAISHA SANGI, priority 2012, dated 2016).
# Experiment: Test for liquid permeation through dentinal tubules (Pashley's protocol, split chamber device)
# Design: species or system human
# Settings: component blended singly
# Procedure: A healthy human evulsion tooth was used to cut the tooth into sections in such a manner that dentin and dentinal tubules were exposed. The resulting sections were polished at a thickness of about 500 μm and were subjected to ultrasonic cleaning. […] The resulting solution was used as a test solution. Then, the sections whose portions other than the test surface had been masked were soaked in the test solution at 37° C. for 9 min per day. This soaking treatment was conducted for 5 days.
# In addition, a test for liquid permeation through dentinal tubules was conducted. […] A dentin section was interposed between an inlet chamber and an outlet chamber of the above device. Then, the test solution was placed in the inlet chamber to treat the dentin surface. In addition, a Ringer's solution was injected using pressure in the inlet chamber before and after the treatment. By measuring the amount of flow through the outlet chamber, the liquid permeation through dentinal tubules was evaluated.
# The effect of inhibiting liquid permeation through dentinal tubules of each test solution was determined as follows: first, a difference between the amount of flow of the Ringer's solution before and that after the treatment was determined; and a liquid permeation inhibition rate of the dentinal tubules was then calculated in percent units by using the following equation. […]
structure (smiles),measurement,value
O.O.O=P([O-])([O-])O.[Ca+2] [calcium monohydrogen phosphate dihydrate],ability to occlude dentinal tubules of a tooth,had an ability to occlude dentinal tubules of a tooth
